Data published in patent US9115176B2, “Compounds, use thereof in cosmetic and cosmeceutic applications, and compositions comprising same” (Lucas Meyer Cosmetics Canada Inc., priority 2007, dated 2015).
* marks the point of attachment. Hexanoyl = CCCCCC(=O)*

How the values were obtained:
[1] = system: Normal human dermal fibroblasts; test: Neosynthesis of laminin in normal human dermal fibroblasts (E.I.A. kit, normalised to Bradford protein); type: cell-based; conditions: for Laminins (ng/μg proteins) % increase: 48 hours incubation, untreated control = 100.0%
Protocol: Normal human dermal fibroblasts were incubated for 48 hours in absence or presence of Transforming Growth Factor (TGF)-β at 50 ng/ml or of peptide I at two concentrations, namely 10^−6M and 10^−7M. At the end of the incubation period, laminins were quantified with the E.I.A. Enzyme Immuno Assay kit. Proteins contained in the cell lysate were also quantified by spectrocolorimetry according to the Bradford method. TGF-β and peptide I were tested in dose-response on the fibroblasts.
The data presented in Table I below represent the relative increase in laminin synthesis in a human dermal fibroblast culture medium in monolayers in the presence of peptide I, or TGF-β, as compared to untreated cells (control).

collagen VII = test: Synthesis of collagen VII in human skin fragments treated with dermal corticosteroid (immunohistochemistry, semi-quantitative score); type: cell-based
Protocol: (§1) Fragments of normal human skin were treated or not in the presence of a dermal corticosteroid at 0.05% w/v and peptide I at a concentration of 10^−7M. Dermal corticosteroid are known to alter cell metabolism. The skin samples were then frozen at day 3 for an immunohistochemical analysis of collagen VII. The immunodetection was performed with a 3 coats indirect immunoperoxidase method (ABC Peroxidase kit, Vector laboratories) using a primary antibody specific to collagen VII.

laminin-5 = test: Synthesis of laminin-5 in human skin fragments treated with dermal corticosteroid (immunohistochemistry, semi-quantitative score); type: cell-based
Protocol: as §1, with “or” for “and”, “10^−7M.” for “10^−7M. Dermal corticosteroid are known to alter cell metabolism.”, “laminin-5.” for “collagen VII.”, “(BC” for “(ABC”

crow's feet = test: In vivo anti-wrinkle activity on crow's feet (photographs, silicone replicas, fringe projection); design: species or system human; conditions: 5 ppm in Table VI formulation, topical twice daily, after 28 and 56 days, versus placebo
Protocol: Peptide I was tested in the formulation described in Table VI below versus its placebo on 30 subjects (+10%) selected according to the inclusion/non inclusion criteria. [table] The study lasted 56 days following the first application. Volunteers applied the product twice daily on a randomised crow's foot of the temple. The study was a simple blind test, comparing the results obtained at one treated area following application of the composition comprising peptide I with those obtained at another treated area with the placebo. The evaluation of the efficacy of the formulation comprising peptide I was performed using: (a) illustrative digital photographs of the crow's feet; and (b) Silicone rubber replicas of the crow's feet (analysis of the wrinkles and of the skin network by fringe projection). In vitro fringe projection—Topometry—Wrinkles. […] All the silicone rubber replicas were analysed by fringe projection to observe the cutaneous relief. The following parameters were measured: (a) SPa: Average roughness; (b) SPq: Average dispersal of the variations of the relief; (c) SPt: Maximum amplitude of the relief and (d) SDev: Developed Surface. […] All the replicas were analysed by fringe projection to observe the skin network analysis. The following parameters were measured: (a) SRa: Average roughness (mm); and (b) SRq: Average with regards to the average quadratic (mm).

[2] = skin + corticosteroids 0.05% w/v + peptide I 10^−7M, day 3

Substance | Laminins (ng/μg proteins) % increase ([1]; 50 ng/ml) | Collagen VII score, relative change (collagen VII; [2]) | Collagen VII labelling score (collagen VII; skin + corticosteroids 0.05% w/v + peptide I 10^−7M, day 3, control skin 1.9 ± 0.8) | Effect on synthesis of collagen VII in a human skin model (in words) (collagen VII; summary of Table III) | Laminin-5 score, relative change (laminin-5; [2]) | Laminin-5 labelling score (laminin-5; skin + corticosteroids 0.05% w/v + peptide I 10^−7M, day 3, control skin 2.1 ± 1.3) | Effect on synthesis of laminin-5 in a human skin model (in words) (laminin-5; summary of Table V) | Crow's feet skin network roughness (in words) (crow's feet) | Reduction of the wrinkles (crow's feet roughness, in words) (crow's feet) | Laminins (ng/μg proteins) % increase ([1]; 10^−6M) | Laminins (ng/μg proteins) % increase ([1]; 10^−7M) | Effect on laminin synthesis in human dermal fibroblast cells (in words) ([1]; summary of Table I)
TGF-β [reference compound] | 109.9% |  |  |  |  |  |  |  |  |  |  | 
CH3—(CH2)4—CO-Lys-Gly-His-Lys-NH2 (Hexanoyl-KGHK-NH2; SMILES CCCCCC(=O)N[C@@H](CCCCN)C(=O)NCC(=O)N[C@@H](Cc1c[nH]cn1)C(=O)N[C@@H](CCCCN)C(N)=O) [Peptide I] |  | +34% | 2.25 ± 0.2 | increases the synthesis of collagen VII | +49% | 2.2 ± 0.8 | increases the synthesis of laminin-5 | reduction of the crow's feet skin network roughness | potent efficacy | 125.8% | 125.9% | increases laminin synthesis
